According to patent US20260297542A1, “HERBICIDE RESISTANT PLANTS” (SYNGENTA CROP PROTECTION AG, priority 2023, published 2026):
Changes are numbered by the printed parent chain.

Experiments:
Test in all cases: E. coli hemG growth inhibition by herbicide, AtPPO1 variant
Type in all cases: cell-based
Settings in all cases: read-out: percentage growth inhibition
AtPPO1 A176L = molecular target: T1, AtPPO1 A176L (Arabidopsis thaliana, UniProt P55826, A176L)
T1 construct: expressed in transfected cells; host or cells: E. coli BL21(DE3) hemG (hemG replaced by CmR), pET24a plasmid
T1 sequence (P55826 35-537 A176L): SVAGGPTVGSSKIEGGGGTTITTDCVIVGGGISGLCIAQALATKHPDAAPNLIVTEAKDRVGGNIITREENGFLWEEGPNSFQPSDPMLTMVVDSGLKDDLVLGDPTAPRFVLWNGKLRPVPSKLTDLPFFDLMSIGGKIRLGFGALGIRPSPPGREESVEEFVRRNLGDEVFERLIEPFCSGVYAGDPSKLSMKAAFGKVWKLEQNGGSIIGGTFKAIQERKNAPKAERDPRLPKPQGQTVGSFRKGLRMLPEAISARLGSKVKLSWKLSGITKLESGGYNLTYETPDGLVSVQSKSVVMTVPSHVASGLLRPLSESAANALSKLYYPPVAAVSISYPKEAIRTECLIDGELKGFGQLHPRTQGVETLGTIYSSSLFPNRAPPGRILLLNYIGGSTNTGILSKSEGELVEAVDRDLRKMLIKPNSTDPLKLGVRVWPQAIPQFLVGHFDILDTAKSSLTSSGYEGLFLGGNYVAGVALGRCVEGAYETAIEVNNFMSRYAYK
Method in brief: (§1)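 Read-out is OD600 at 24 h post inoculation, converted to percent growth inhibition relative to DMSO. The hemG-deleted BL21(DE3) host relied on the plasmid-borne AtPPO1 variant, induced with 0.1 mM IPTG, with 6.25 ppm herbicide 0 or E or 0.78 ppm herbicide B present at 37° C.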

AtPPO1 R449K = molecular target: T2, AtPPO1 R449K (Arabidopsis thaliana, UniProt P55826, R449K)
T2 construct: expressed in transfected cells; host or cells: E. coli BL21(DE3) hemG, pET24a plasmid
T2 sequence (P55826 35-537 R449K): T1 sequence (P55826 35-537 A176L) with L142A, R415K
Method in brief: as §1

AtPPO1 Y361R = molecular target: T3, AtPPO1 Y361R (Arabidopsis thaliana, UniProt P55826, Y361R)
T3 sequence (P55826 35-537 P363R/Y361R): T1 sequence (P55826 35-537 A176L) with L142A
Method in brief: as §1

AtPPO1 Y362F = molecular target: T4, AtPPO1 Y362F (Arabidopsis thaliana, UniProt P55826, Y362F)
T4 construct: expressed in transfected cells; host or cells: E. coli BL21(DE3) hemG (pET24a, T7 promoter)
T4 sequence (P55826 35-537 Y362F): T1 sequence (P55826 35-537 A176L) with L142A, Y328F
Method in brief: as §1

Structure (SMILES)	inhibition at 6.25 ppm (AtPPO1 A176L) [%]	inhibition at 6.25 ppm (AtPPO1 R449K) [%]	inhibition at 6.25 ppm (AtPPO1 Y361R) [%]	inhibition at 6.25 ppm (AtPPO1 Y362F) [%]	inhibition at 0.78 ppm (AtPPO1 A176L) [%]	inhibition at 0.78 ppm (AtPPO1 R449K) [%]	inhibition at 0.78 ppm (AtPPO1 Y361R) [%]	inhibition at 0.78 ppm (AtPPO1 Y362F) [%]
CC(C)N(C)S(=O)(=O)NC(=O)c1cc(-n2c(=O)cc(C(F)(F)F)n(C)c2=O)c(F)cc1Cl [Herbicide E, saflufenacil]	61	68	56	43				
C#CCN1C(=O)C(F)(F)Oc2cc(F)c(-n3c(=O)n(C)c(=S)n(C)c3=O)cc21 [Herbicide B, trifludimoxazin]					35	35	36	34
CCOC(=O)[C@]1(C)CC(c2cc(-n3c(=O)n(C)c(=S)n(C)c3=O)c(F)cc2Cl)=NO1 [Herbicide D, ethyl (5S)-3-[2-chloro-5-(3,5-dimethyl-2,6-dioxo-4-thioxo-1,3,5-triazinan-1-yl)-4-fluoro-phenyl]-5-methyl-4H-isoxazole-5-carboxylate]	42	37	43	13				
